Measurements reported in patent publication US20250127775A1, “METHOD OF INDUCING DENDRITIC AND SYNAPTIC GENESIS IN NEURODE[…] DISEASES” (priority 2018, published 2025).

What was measured:
[1] = tested on: cortical rat neurons; assay: Dendrite and synaptic connections of rat cortical neurons after exposure to tryptamines (FIG. 2); type: cell-based; conditions: 24 hours of exposure, FIG. 2 left to right
Description: The effect is dramatic and fast even with very small doses of the compounds which is a desirable profile for a therapeutic molecule. Looking at FIG. 2 from left to right, it is apparent that LSD>DMT>DOI>Vehicle with regards to dendritic and synaptic generation. Potential therapeutics that can be used in the present invention are tryptamines such as tryptamines and phenethylamines selected from the group, N, N-dimethyltryptamine, 5-methoxy-N, N-dimethyltryptamine, Ketamine, noribogaine, psilocin 3,4-methylenedioxymethamphetamine, mescaline, psilocin, and psilocybin. The dose concentration will vary by molecule type but can range for 0.00001 to 250 milligrams to kilograms (mg/kg) of body weight with 0.01 to 50 mg/kg being preferred.

[2] = tested on: rat neurons; assay: SEM images of rat neurons after exposure to toxic amyloid peptide (FIG. 1); type: cell-based; conditions: exposure for 4 days to 250 micro molar toxic peptide
Description: At this resolution one can see copious dendritic structures, the round dark circles. The resolution is not high enough to visualize synaptic connections. The image labeled A is of rat neurons after exposure for 4days to 250 micro molar concentrations of toxic peptide. […] This model emulates what is seen in the human versions of AD disease.

Row | Molecule | rank order with regards to dendritic and synaptic generation [1] | degradation of the dendrites (and synaptic connections) [2]
1 | CN(C)CCc1c[nH]c2ccccc12 [DMT, N, N-dimethyltryptamine] | LSD>DMT>DOI>Vehicle | –
2 | COc1cc(CC(C)N)c(OC)cc1I (stereo not drawn) [DOI] | LSD>DMT>DOI>Vehicle | –
3 | A 42 amyloid proteins: toxic amyloid protein used to compromise rat neurons, dendrites and synaptic connections | – | significant degradation of the dendrites
